# In patent US8957192B2, “Human cytotoxic T-lymphocyte epitope and its agonist epitope from the non-variable number of tandem repeat sequence of MUC-1” (The United States of America, as represented by the …, priority 2003, dated 2015):
# Values joined by “and” are separate entries in the source; they are usually repeats but may differ in a detail not shown here. Equal entries are not always repeated.
# Experiments:
# HLA-A2 molecule = HLA-A2 molecule (Homo sapiens, UniProt P04439, I166T/I218V/L300P/L318F/N151K/N90K/P208A/P217A/Q86G/Q94H/R138H/R169H/T345S); test: T2 cell binding assay: peptide binding to HLA-A2 by flow cytometry
# Procedure: In this assay, increased stability (accumulation) of HLA-A2 molecules on the surface of T2 cells as a consequence of peptide binding is measured by increased binding of antibody directed against HLA-A2 molecule. Briefly, 1×10^6 cells in serum-free Iscove's modified Dulbecco's complete medium were incubated with peptides at a concentration of 50 μg/ml in 24-well culture plates at 37° C. in 5% CO2. Flow cytometry for peptide binding was performed using T2 cells and single-color analysis. After cells were washed three times in DPBS, as described above, they were incubated for 1 h with a 1:100 dilution of HLA-A2-specific MAb (One Lambda, Inc.) per 10^6 cells. UPC-10 (Cappel/Organon Teknika) was used as isotype control. The cells were then washed three times and incubated with 1:100 dilution of FITC-labeled anti-mouse IgG (BD Biosciences). Analysis was conducted with the FACScan, as described above. Cells were maintained on ice during all cell preparation and staining.
# The primary amino acid sequence of human MUC-1 was analyzed for consensus motifs for novel HLA-A2 binding peptides. […] The CEA CAP1-6D peptide and a NCA peptide were used as a positive and negative control, respectively.
# T-1191-MUC-1 cells = test: IFN-γ production (ELISA) by T-1191-MUC-1 cells stimulated with peptide-pulsed autologous B cells; type: cell-based, human; conditions: T-1191-MUC-1 at IVS-3; autologous EBV-B cells pulsed 25 μg/ml; effector-to-APC 1:3; 24 h
# Procedure: Supernatants of T cells exposed for 24 h to peptide-pulsed autologous EBV-transformed B cells, in IL-2-free medium at various peptide concentrations, were screened for secretion of IFN-γ using an ELISA kit (R & D Systems, Minneapolis, Minn.). The results were expressed in pg/ml. A CBA system (BD PharMingen, San Diego, Calif.) was also used to determine the secretion of multiple cytokines by specific T cells. The CBA system uses the fluorescence detection by flow cytometry to measure soluble analyses in a particles-based immunoassay. The BD human Th1/Th2 cytokine CBA Kit was used to measure IL-2, IL-4, IL-5, IL-10, TNF-α protein levels in a single sample. The cytokine capture beads were mixed with PE-conjugated detection antibodies and then incubated with recombinant cytokine standards or test samples to form sandwich complexes. The sample results were generated in graphic and tabular format, using BD PharMingen CBA analysis software. The results were expressed in pg/ml.
# The specificity of the MUC-1-specific T cells generated (designated T-1191-MUC-1) was analyzed after IVS cycle 3 (see Materials and Methods) for their ability to release IFN-γ after stimulation with autologous B cells pulsed with each of the MUC-1 peptides listed in Table 1.
# [1] = system: T-cell lines T-rV, T-rF, T-rF(CEA), T-rF(MUC); type: cell-based, human; conditions: 24 h
# [2] = system: CEA-specific T cells (V8T); type: cell-based, human; conditions: 24 h
# [3] = system: T-cell lines T-55, T-49, T-41; test: IFN-γ production by T-cell lines from cancer patients established with rF-CEA/MUC/TRICOM-infected DCs; type: cell-based, human; conditions: autologous DCs as APC; peptides 25 μg/ml; effector-to-APC 10:1; 24 h
# [4] = system: MUC-1-specific T-cell lines T-23-P-92, T-23-P-93L, T-18-P-92, T-18-P-93L; test: IFN-γ production by T-cell lines from two pancreatic cancer subjects stimulated with peptide-pulsed DCs; type: cell-based, human; conditions: IVS-4; allogeneic DCs pulsed 25 μg/ml; effector-to-APC 10:1; 24 h
# [5] = system: MUC-1-specific T cells (T-1191-P93L); type: cell-based, human; conditions: 24 h
# [6] = Table 1, T2 cells, peptide 50 μg/ml
sequence,measurement,setting,value
WGQDVTSVPV [Peptide P-94],T2 binding,HLA-A2 molecule; [6],591 relative fluorescence
same,"Production of IFN-γ, with peptide",T-1191-MUC-1 cells,323.6 pg/mL
GTQSPFFLLL [Peptide P-4],T2 binding,HLA-A2 molecule; [6],467 relative fluorescence
same,"Production of IFN-γ, with peptide",T-1191-MUC-1 cells,260.0 pg/mL
ALWGQDVTSL [L-93/L-101],T2 binding,"HLA-A2 molecule; Table 4, P-92 analogues",736 relative fluorescence values
AMWGQDVTSV [Peptide M-93],T2 binding,"HLA-A2 molecule; Table 4, P-92 analogues",723 relative fluorescence values
ALAIVYLIAL [Peptide P-1172],T2 binding,HLA-A2 molecule; [6],372 relative fluorescence
same,"Production of IFN-γ, with peptide",T-1191-MUC-1 cells,<52.3 pg/mL
"YLSGADLNL [CAP1-6D, reference compound]",Production of IFN-γ by T-rF,[1],550.0 pg/mL
same,Production of IFN-γ by T-rF(CEA),[1],729.2 pg/mL
same,Production of IFN-γ by T-rF(MUC),[1],<15.6 pg/mL
same,Production of IFN-γ by T-rV,[1],976.3 pg/mL
same,"IFN-γ, CEA-specific CTL",[2],772 pg/mL and 820 pg/mL
same,IFN-γ secretion by T-41,[3],933.4 pg/mL
same,IFN-γ secretion by T-49,[3],974.2 pg/mL
same,IFN-γ secretion by T-55,[3],">1,000 pg/ml"
same,IFN-γ produced by T-18-P-92,[4],<26 pg
same,IFN-γ produced by T-18-P-93L,[4],<26 pg
same,IFN-γ produced by T-23-P-92,[4],<26 pg
same,IFN-γ produced by T-23-P-93L,[4],<26 pg
same,"IFN-γ, MUC-1-specific CTL",[5],<15 pg/mL
REGTINVHDV [Peptide P-1108],T2 binding,HLA-A2 molecule; [6],482 relative fluorescence
same,"Production of IFN-γ, with peptide",T-1191-MUC-1 cells,<52.3 pg/mL
"YRPGENLNL [NCA, NCA peptide used as a negative control, reference compound]",T2 binding,HLA-A2 molecule; [6],365 relative fluorescence
"VISNDVCAQV [PSA peptide, prostate-specific antigen (PSA) peptide, control]",IFN-γ secretion by T-41,[3],<15.6 pg/mL
same,IFN-γ secretion by T-49,[3],<15.6 pg/mL
same,IFN-γ secretion by T-55,[3],<15.6 pg/mL
AIWGQDVTSL [I-93/L-101],T2 binding,"HLA-A2 molecule; Table 4, P-92 analogues",280 relative fluorescence values
